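Test compounds were applied to cells in 96-well plates for 48 hours at 5 doses. GI50 is the concentration that inhibits growth by half.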 The source made the active and inactive calls. Rule as the data show it: active = GI50 up to about 1.1 µM and inactive = higher.
Key:
Assay in all cases: NCI tumour cell line growth inhibition, 48 h
Malme-3M = system: Malme-3M
NCI-H522 = system: NCI-H522
UACC-62 = system: UACC-62
SF-295 = system: SF-295
EKVX = system: EKVX
IGROV-1 = system: IGROV-1
SW-620 = system: SW-620
SF-539 = system: SF-539
KM12 = system: KM12
HCC 2998 = system: HCC 2998
M14 = system: M14
OVCAR-5 = system: OVCAR-5
SNB-75 = system: SNB-75
SF-268 = system: SF-268
NCI-H226 = system: NCI-H226
RXF 393 = system: RXF 393
MOLT-4 = system: MOLT-4

Measured: GI50

COc1cc2c(cc1OC)C(C#N)(Cc1ccccc1)N(C(=O)c1ccccc1)C=C2 (stereo not given)
inactive: Malme-3M > 100 µM | NCI-H522 33.9 µM | UACC-62 31.3 µM | SF-295 > 100 µM | EKVX 39.6 µM | IGROV-1 > 100 µM | SW-620 81.5 µM | SF-539 > 100 µM | KM12 60.7 µM | HCC 2998 > 100 µM | M14 > 100 µM | OVCAR-5 > 100 µM | SNB-75 70.6 µM | SF-268 > 100 µM | NCI-H226 63 µM | RXF 393 24.4 µM | MOLT-4 32.5 µM

OCCCc1cnco1
inactive: Malme-3M > 100 µM | UACC-62 > 100 µM | SF-295 > 100 µM | EKVX > 100 µM | IGROV-1 > 100 µM | SW-620 > 100 µM | SF-539 > 100 µM | KM12 > 100 µM | HCC 2998 > 100 µM | M14 > 100 µM | OVCAR-5 > 100 µM | SNB-75 > 100 µM | SF-268 > 100 µM | NCI-H226 > 100 µM | RXF 393 > 100 µM | MOLT-4 > 100 µM

ClC1=C(Cl)C(Cl)(Cl)c2c3c(c4c(c21)C(Cl)(Cl)C(Cl)=C4Cl)C(Cl)(Cl)C(Cl)=C3Cl
inactive: Malme-3M > 100 µM | NCI-H522 33.1 µM | SF-295 > 100 µM | EKVX > 100 µM | IGROV-1 > 100 µM | SW-620 > 100 µM | SF-539 > 100 µM | KM12 > 100 µM | HCC 2998 > 100 µM | M14 > 100 µM | SF-268 > 100 µM | NCI-H226 > 100 µM | MOLT-4 > 100 µM

CC(C)(C)c1ccc2c(c1)S(=O)(=O)Nc1ccccc1NS(=O)(=O)c1cc(C(C)(C)C)ccc1OCCOCCOCCO2
inactive: Malme-3M 33.5 µM | UACC-62 64.6 µM | SF-295 71 µM | EKVX 71.8 µM | IGROV-1 > 100 µM | SW-620 > 100 µM | SF-539 40 µM | KM12 > 100 µM | HCC 2998 > 100 µM | M14 > 100 µM | OVCAR-5 > 100 µM | SNB-75 39.2 µM | SF-268 48.4 µM | NCI-H226 > 100 µM | RXF 393 45.5 µM | MOLT-4 > 100 µM

CN(C)c1ccc(N=O)c(O)c1.CN(C)c1ccc(N=O)c(O)c1.[SiH4]
inactive: Malme-3M 14.1 µM | NCI-H522 1.53 µM | UACC-62 8.49 µM | SF-295 14.3 µM | EKVX 15.3 µM | IGROV-1 20.9 µM | SW-620 10.2 µM | SF-539 14.2 µM | KM12 14.6 µM | HCC 2998 15.4 µM | M14 11.7 µM | OVCAR-5 24 µM | SNB-75 12.7 µM | SF-268 6.98 µM | NCI-H226 16.4 µM | MOLT-4 11.5 µM

CC(C)c1cccc(C(C)C)c1N1C(=O)C(=O)C(c2nc3ccccc3o2)C(=O)C1=O
inactive: Malme-3M 91.4 µM | NCI-H522 19.5 µM | UACC-62 71.6 µM | SF-295 > 100 µM | EKVX > 100 µM | IGROV-1 > 100 µM | SW-620 48.1 µM | SF-539 > 100 µM | KM12 > 100 µM | HCC 2998 24.3 µM | M14 55.8 µM | OVCAR-5 > 100 µM | SNB-75 26.2 µM | SF-268 47.2 µM | NCI-H226 19.2 µM | RXF 393 92.3 µM

CC(=O)NN1C(=O)C(Cc2ccccc2)c2ccccc21 (stereo not given)
inactive: Malme-3M > 100 µM | UACC-62 > 100 µM | SF-295 > 100 µM | EKVX > 100 µM | IGROV-1 > 100 µM | SW-620 > 100 µM | SF-539 > 100 µM | KM12 > 100 µM | HCC 2998 > 100 µM | M14 > 100 µM | OVCAR-5 > 100 µM | SNB-75 > 100 µM | SF-268 > 100 µM | NCI-H226 > 100 µM | MOLT-4 > 100 µM

Cc1ccc(Sc2cc([N+](=O)[O-])cc(Sc3ccc(C)cc3)c2Sc2ccc(C)cc2)cc1
inactive: Malme-3M > 100 µM | UACC-62 > 100 µM | SF-295 > 100 µM | EKVX > 100 µM | IGROV-1 > 100 µM | SW-620 > 100 µM | SF-539 > 100 µM | KM12 > 100 µM | HCC 2998 > 100 µM | M14 > 100 µM | OVCAR-5 > 100 µM | SNB-75 53.5 µM | SF-268 > 100 µM | NCI-H226 > 100 µM | RXF 393 36 µM | MOLT-4 34.1 µM
